Like-named read-outs stand apart in the source and are kept apart here.
Legend:
[1] = molecular target: T1, GppNHp-loaded KRAS4b (amino acids 1-169) G12C/C118S protein (Homo sapiens, UniProt P01116, C118S/G12C); test: Covalent cysteine 12 modification by MALDI-TOF MS, GppNHp-loaded KRAS G12C; format: binding; settings: 15 minutes reaction time point
T1 construct: KRAS4b (amino acids 1-169) G12C/C118S protein; made in house
How it was run: (§1)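 KRAS4b 1-169 G12C/C118S loaded with GDP, GppNHp or GTP was used at 1 μM in 20 mM HEPES, 150 mM NaCl, 1 mM MgCl2, pH 7.3, and incubated with compound (5 mM DMSO stock) at room temperature in the dark. % modification at 15 min is adduct peak height over total protein peak heights by linear-mode MALDI-TOF.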

[2] = molecular target: T2, GTP-loaded KRAS4b (amino acids 1-169) G12C/C118S protein (Homo sapiens, UniProt P01116, C118S/G12C); test: Covalent cysteine 12 modification by MALDI-TOF MS, GTP-loaded KRAS G12C; format: binding; settings: 15 minutes reaction time point
T2 construct: KRAS4b (amino acids 1-169) G12C/C118S protein; made in house
Experimental: Reaction: 1 μM of GppNHp-, GTP-, or GDP-loaded KRAS4b (amino acids 1-169) G12C/C118S protein (produced in-house by Protein Expression Laboratory, FNLCR/Leidos Biomed) in 20 mM 4-(2-hydroxyethyl)-1-piperazineethanesulfonic acid (HEPES) buffer containing 150 mM NaCl, 1 mM MgCl2, pH 7.3 was prepared freshly before assay. Ten-μL aliquots of protein were dispensed onto low volume 384-well plate, then 375 nL DMSO, and 25 nL of tested compounds from 5 mM DMSO stocks were added to appropriate wells using ECHO 555 acoustic liquid handler (Labcyte Inc.). For each reaction/assay, three blanks were prepared by mixing 10 μL of protein solution with 400 nL DMSO. The contents of the wells were carefully mixed by aspiration, and then each plate was sealed with an adhesive cover, centrifuged at 2000 g for 1 minute, and kept in the dark at room temperature until 5 min, 15 min, 30 min, or 2 h collections.
Target pretreatment: Before each assay MALDI target (Bruker MPT 384 ground steel BC) was pre-treated by pipetting on each spot 0.75 μL of saturated sinapinic acid in acetonitrile (ACN).
Sample preparation: At collection time point, 2 μL of reaction mixtures were pipetted out into 20 μL MALDI matrix solution (saturated solution of sinapinic acid in 1:1 ACN:water solution containing 0.75% trifluoroacetic acid (TFA)) deposited on 384 well polypropylene plate. Resulting solution was mixed by aspiration, centrifuged at 2000 g for 1 minute, then 1 μL aliquots were dispensed on pre-treated MALDI target using Beckman Coulter Biomek FXP 96/384-Span-8 Laboratory Automation Workstation. Finally, the MALDI target was dried under mild vacuum to produce spots with fine crystalline structure.
Measurements: MALDI-TOF measurements were performed on a Bruker Daltonics rapiflex Tissuetyper TOF-TOF mass spectrometer using linear mode and mass range from 18.6 to 21.6 kDa. Detector gain was set to 3.3× (483 V), sample rate to 5 GS/s, real time smoothing to medium (175 MHz), laser smart beam pattern was set to: “MS Thin Layer M5”, and the laser frequency was 10000 Hz. Spectra were automatically collected using custom Auto Xecute method. Laser power was auto adjusted using fuzzy control. The peak selection range was set to be between 19000 and 21500 Da. Peak evaluation uses half width parameter set to be smaller than 40 Da for processed spectrograms (centroid peak detection; smoothed by SavitzkyGolay algorithm using 7 m/z width and 2 cycles; baseline was subtracted using median algorithm with flatness 1 and median level 0.01). Fuzzy control used Proteins/Oligonucleotides protocol with minimum half width 1/10 times above threshold. Up to 40000 satisfactory shots were collected in 10000 shot steps. Dynamic termination was implemented to finish data collection when peak signal/noise ratio was reaching value of 50.
Spectra processing: Spectra were smoothed by SavitzkyGolay algorithm using 7 m/z width and three cycles. Centroid peak detection algorithm was used with signal to noise threshold set to 6, relative intensity threshold 4%, peak width 10 m/z and median baseline subtraction using flatness of 1 and median level of 0.01. Peak intensity and area under the peak were evaluated and recorded for all peaks between 19,300 Da and 21,550 Da.
Calculation of percent modification: Percent modification was calculated as a ratio of peak height for protein modified by compound to sum of peak height of remaining protein plus peak height for protein modified by compound. If multiple modifications were observed each was calculated as a ratio of peak height for given modification versus sum of peak heights for all observed protein species. Data reported in Table 5 are from 15 minutes reaction time point.

[3] = molecular target: T3, GDP-loaded KRAS4b (amino acids 1-169) G12C/C118S protein (Homo sapiens, UniProt P01116, C118S/G12C); test: Covalent cysteine 12 modification by MALDI-TOF MS, GDP-loaded KRAS G12C; format: binding; settings: 15 minutes reaction time point
T3 construct: KRAS4b (amino acids 1-169) G12C/C118S protein; made in house
How it was run: as §1

pERK in NCI-H358 cells = test: Cell-based pERK HTRF assay; settings: 30 min incubation, read-out: pERK in NCI-H358 cell inhibition IC50
How it was run: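 Cells seeded at 4×10^4/well in RPMI with 10% FBS, then next day treated for 30 min with a 9-point, 3-fold series from 75 μM top concentration at 0.25% DMSO. Lysates were read for pERK by HTRF (d2/Eu cryptate antibodies) after 4–24 h at room temperature, emission at 615 nm.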

[4] = molecular target: T4, Avi-KRAS G12C (1-169) GppNHp/RAF1 RBD-3×FLAG (52-151) (Homo sapiens, UniProt P01116, G12C); test: Raf1 RBD-KRAS G12C-GppNHp disruption (protein:protein interaction HTRF assay); format: biochemical
T4 construct: Avi-KRAS G12C (1-169) GppNHp/RAF1 RBD-3×FLAG (52-151)
How it was run: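 HTRF measuring disruption of 50 nM Avi-KRAS G12C (1-169) loaded with GppNHp binding RAF1 RBD-3×FLAG (52-151), in pH 7.5 Tris buffer with 5 mM MgCl2, 0.1% BSA, 10% DMSO. KRAS preincubated with compound 1 h, then RBD 1 h, then detection reagents 1 h, all at room temperature. Compound titration 30-0.02 μM; activity expressed as percent of DMSO control.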

SMILES	GppNHp-KRAS G12C percent of modification [1]	GTP-KRAS G12C percent of modification [2]	GDP-KRAS G12C percent of modification [3]	IC50 (pERK in NCI-H358 cells; Homo sapiens, NCI-H358, 0.5 h)	IC50 [4]	IC50 (pERK in NCI-H358 cells)
C=CC(=O)N1C[C@H](Oc2nc(OC[C@@]34CCCN3C[C@H](F)C4)nc3c(F)c(-c4ccc(F)c5sc(N)c(C#N)c45)c(C(F)(F)F)cc23)C[C@@H]1COC (atropisomer, axis not shown) [Compound 85]	C (10%≤modification <50%)	C (10%≤modification <50%)	C (10%≤modification <50%)	–	≤ 500 nM	≤ 100 nM
C=CC(=O)N1C[C@H](Oc2nc(OC[C@@]34CCCN3C[C@H](F)C4)nc3c(F)c(-c4ccc(F)c5sc(N)nc45)c(C(F)(F)F)cc23)[C@@H](F)C1 [Compound 28, 1-((3S,4S)-3-((7-(2-amino-7-fluorobenzo[d]thiazol-4-yl)-8-fluoro-2-(((2R,7aS)-2-fluorotetrahydro-1H-pyrrolizin-7a (5H)-yl)methoxy)-6-(trifluoromethyl)quinazolin-4-yl)oxy)-4-fluoropyrrolidin-1-yl) prop-2-en-1-one]	A (percent of modification ≥70%)	–	A (percent of modification ≥70%)	≤ 100 nM	≤ 500 nM	–
C=CC(=O)N1CC(Oc2nc(OC[C@@]34CCCN3C[C@H](F)C4)nc3c(F)c(-c4ccc(F)c5sc(N)nc45)c(C(F)(F)F)cc23)[C@@H](C)C1 (stereo partly shown) [Compound 35]	D (percent of modification <10%)	–	C (10%≤modification <50%)	–	500 to 5000 nM	100 to 1000 nM
C=CC(=O)N1C[C@@H](F)[C@@H](Oc2nc(OC[C@@]34CCCN3C[C@H](F)C4)nc3c(F)c(-c4ccc(F)c5sc(N)nc45)c(C(F)(F)F)cc23)C1 [Compound 40, 1-((3S,4R)-3-((7-(2-amino-7-fluorobenzo[d]thiazol-4-yl)-8-fluoro-2-(((2R,7aS)-2-fluorotetrahydro-1H-pyrrolizin-7a (5H)-yl)methoxy)-6-(trifluoromethyl)quinazolin-4-yl)oxy)-4-fluoropyrrolidin-1-yl) prop-2-en-1-one]	A (percent of modification ≥70%)	–	A (percent of modification ≥70%)	≤ 100 nM	≤ 500 nM	–
C=CC(=O)N1CC[C@@H](Oc2nc(OC[C@@]34CCCN3C[C@H](F)C4)nc3c(F)c(-c4ccc(F)c5sc(N)nc45)ncc23)C1 [Compound 43]	C (10%≤modification <50%)	–	A (percent of modification ≥70%)	> 1000 nM	500 to 5000 nM	–
C=CC(=O)N1CC[C@@H](Oc2nc(OC[C@@]34CCCN3C[C@H](F)C4)nc3cc(-c4ccc(F)c5sc(N)c(C#N)c45)c(F)cc23)[C@H]1C [Compound 109]	B (50≤percent of modification <70%)	C (10%≤modification <50%)	A (percent of modification ≥70%)	≤ 100 nM	–	–

Now from value to compound:

GppNHp-KRAS G12C percent of modification [1]	GTP-KRAS G12C percent of modification [2]	GDP-KRAS G12C percent of modification [3]	IC50 (pERK in NCI-H358 cells; Homo sapiens, NCI-H358, 0.5 h)	IC50 [4]	IC50 (pERK in NCI-H358 cells)	SMILES
A (percent of modification ≥70%)	B (50≤percent of modification <70%)	A (percent of modification ≥70%)	≤ 100 nM	≤ 500 nM	–	C=CC(=O)N1CC[C@@H](Oc2nc(OC[C@@]34CCCN3C[C@H](F)C4)nc3c(Cl)c(-c4ccc(F)c5sc(N)nc45)c(C(F)(F)F)cc23)C1 (atropisomer, axis not shown) [Compound 44]
D (percent of modification <10%)	D (percent of modification <10%)	D (percent of modification <10%)	–	5000 to 20000 nM	> 1000 nM	C=CC(=O)N1C[C@H](Oc2nc(OC[C@@]34CCCN3C[C@H](F)C4)nc3c(F)c(-c4ccc(F)c5sc(N)c(C#N)c45)c(C(F)(F)F)cc23)C[C@@H]1COC (atropisomer, axis not shown) [Compound 86]
B (50≤percent of modification <70%)	B (50≤percent of modification <70%)	A (percent of modification ≥70%)	–	≤ 500 nM	≤ 100 nM	C=CC(=O)N1C[C@H](Oc2nc(OC[C@@]34CCCN3C[C@H](F)C4)nc3c(F)c(-c4ccc(F)c5sc(N)c(C#N)c45)c(C(F)(F)F)cc23)C[C@H]1COC (atropisomer, axis not shown) [Compound 89]
A (percent of modification ≥70%)	–	A (percent of modification ≥70%)	≤ 100 nM	≤ 500 nM	–	C=CC(=O)N1CC[C@@H](Oc2nc(OC[C@@]34CCCN3C[C@H](F)C4)nc3c(F)c(-c4ccc(F)c5sc(N)nc45)c(C(F)(F)F)cc23)[C@H]1C [Compound 29, 1-((2R,3R)-3-((7-(2-amino-7-fluorobenzo[d]thiazol-4-yl)-8-fluoro-2-(((2R,7aS)-2-fluorotetrahydro-1H-pyrrolizin-7a (5H)-yl)methoxy)-6-(trifluoromethyl)quinazolin-4-yl)oxy)-2-methylpyrrolidin-1-yl) prop-2-en-1-one]
B (50≤percent of modification <70%)	–	A (percent of modification ≥70%)	≤ 100 nM	≤ 500 nM	–	C=CC(=O)N1CC(Oc2nc(OC[C@@]34CCCN3C[C@H](F)C4)nc3c(F)c(-c4ccc(F)c5sc(N)nc45)c(C(F)(F)F)cc23)[C@@H](C)C1 (stereo partly shown) [Compound 34]
C (10%≤modification <50%)	–	C (10%≤modification <50%)	≤ 100 nM	≤ 500 nM	–	C=CC(=O)N1CC[C@@H](Oc2nc(OC[C@@]34CCCN3C[C@H](F)C4)nc3c(F)c(-c4ccc(F)c5oc(N)nc45)c(C(F)(F)F)cc23)C1 [Compound 36, 1-((3R)-3-((7-(2-amino-7-fluorobenzo[d]oxazol-4-yl)-8-fluoro-2-(((2R,7aS)-2-fluorotetrahydro-1H-pyrrolizin-7a (5H)-yl)methoxy)-6-(trifluoromethyl)quinazolin-4-yl)oxy)pyrrolidin-1-yl) prop-2-en-1-one]

Source: patent US20250188085A1, “COMPOSITIONS AND METHODS FOR INHIBITION OF RAS” (THERAS, INC., priority 2022, published 2025)
